20 compounds from patent US11795177B2, “Substituted quinoline analogs as aldehyde dehydrogenase 1A1 (ALDH1A1) inhibitors” (THE UNITED STATES OF AMERICA, AS REPRESENTED BY THE …, priority 2017, dated 2023) can be followed below.

One assay concerns MIA PaCa-2 cells. The assay is described as follows: MIA PaCa2 cell-based assay (1,536-well high-content imaging ALDEFLUOR assay). On the set-up: species or system human. The following applies: Homo sapiens, 0.5 h, ALDEFLUOR BAAA substrate 500 nM, 30 minutes. The procedure, abridged:
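MIA PaCa-2 cells (1,000/well), plated overnight, given BAAA substrate (500 nM) plus Hoechst 33342 (0.5 nM), then compound (16-point, 1.4 nM–47.8 μM final; 0.5% DMSO). After 30 min at 37° C, ALDH activity imaged by high-content microscopy as BAA-retaining (FITC) cells versus Hoechst-stained nuclei.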

A further assay has as its target T1, ALDH1A1 enzyme (Homo sapiens, UniProt P00352).
T1 sequence (P00352 1-501): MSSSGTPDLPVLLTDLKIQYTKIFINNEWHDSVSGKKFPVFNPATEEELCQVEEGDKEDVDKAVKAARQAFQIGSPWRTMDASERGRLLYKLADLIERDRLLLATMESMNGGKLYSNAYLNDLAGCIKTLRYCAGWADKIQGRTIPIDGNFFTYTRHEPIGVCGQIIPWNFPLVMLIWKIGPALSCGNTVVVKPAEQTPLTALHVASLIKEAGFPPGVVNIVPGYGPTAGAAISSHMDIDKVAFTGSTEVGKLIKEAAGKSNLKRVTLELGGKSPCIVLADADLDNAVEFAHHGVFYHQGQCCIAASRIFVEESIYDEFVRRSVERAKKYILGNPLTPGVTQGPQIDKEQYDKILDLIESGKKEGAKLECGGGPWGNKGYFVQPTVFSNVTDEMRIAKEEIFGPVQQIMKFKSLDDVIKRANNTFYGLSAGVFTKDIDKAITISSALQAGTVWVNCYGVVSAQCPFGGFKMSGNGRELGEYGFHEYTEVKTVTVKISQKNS
The assay is described as follows: ALDH1A1 enzymatic assay (in vitro). The note with it: ALDH1A1 enzyme 20 nM, NAD+ 1 mM, propionaldehyde 80 μM; read-out: ALDH1A1 IC50. Type of assay: biochemical. The protocol: Example 358. ALDH1A1 Enzymatic Assay (In Vitro Assay)
3 μL of ALDH1A1 enzyme (final concentration 20 nM) or assay buffer (100 mM HEPES pH 7.5 with 0.01% Tween 20) were dispensed into a 1,536-well solid-bottom black plate (Greiner Bio One, Monroe, N.C.) followed by pin-tool transfer (23 nL) of candidate inhibitors (final concentration range 968 pM to 57.2 μM) and control (Bay 11-7085, final concentration range 1.31 nM to 2.86 μM). Samples were incubated (RT, protected from light) for 15 minutes followed by a 1 μL substrate addition of NAD^+ and Propionaldehyde (final concentrations of 1 mM and 80 μM, respectively). Plates were centrifuged at 1,000 rpm for 15 seconds, then read in kinetic mode on a ViewLux High-throughput CCD imager (Perkin-Elmer) equipped with standard UV fluorescence optics (340 nm excitation, 450 nm emission) for 10 minutes. The change in fluorescence intensity over the 10-minute reaction period was normalized against no-inhibitor and no-enzyme controls and the resulting percent inhibition data were fitted for biological activity.

For orientation: IC50 means the concentration needed to halve the response being measured.

Turning to `CCNC(=O)N1CCN(C(=O)c2cnc3cc(OC)ccc3c2N2CCC(C)(C#N)CC2)CC1` [Example 107, 4-(4-(4-cyano-4-methylpiperidin-1-yl)-7-methoxyquinoline-3-carbonyl)-N-ethylpiperazine-1-carboxamide], the figures for the IC50 with MIA PaCa-2 cells and on ALDH1A1 enzyme were 1000 to 10000 nM and less than 500 nM, respectively.

For the compound `COc1cc2ncc(C(=O)N3CCN(C(C)=O)CC3)c(N3CCC(C)(C#N)CC3)c2cc1OC` [Example 112, 1-(3-(4-acetylpiperazine-1-carbonyl)-6,7-dimethoxyquinolin-4-yl)-4-methylpiperidine-4-carbonitrile], the half-inhibitory concentration (IC50) is 1000 to 10000 nM with MIA PaCa-2 cells and less than 500 nM on ALDH1A1 enzyme.

Take `CCS(=O)(=O)N1CCN(C(=O)c2cnc3c(cnn3C)c2N2CCC(C)(C#N)CC2)CC1` [Example 207, 1-(5-(4-(ethylsulfonyl)piperazine-1-carbonyl)-1-methyl-1H-pyrazolo[3,4-b]pyridin-4-yl)-4-methylpiperidine-4-carbonitrile]: the IC50 is 1000 to 10000 nM with MIA PaCa-2 cells and less than 500 nM on ALDH1A1 enzyme.

Turning to `CC1(C#N)CCN(c2c(C(=O)N3CCN(C(=O)C4CC4)C4(CC4)C3)cnc3ccc(F)cc23)CC1` [Example 232, 1-(3-(4-(cyclopropanecarbonyl)-4,7-diazaspiro[2.5]octane-7-carbonyl)-6-fluoroquinolin-4-yl)-4-methylpiperidine-4-carbonitrile], the 50% inhibitory concentration (IC50) in the assay on MIA PaCa-2 cells is 1000 to 10000 nM; at ALDH1A1 enzyme, less than 500 nM.

`CN(C)C(=O)N1CCN(C(=O)c2cnc3cc(F)c(F)cc3c2N2CCC3(CC2)OCCO3)CC1` [Example 181, 4-(6,7-difluoro-4-(1,4-dioxa-8-azaspiro[4.5]decan-8-yl)quinoline-3-carbonyl)-N,N-dimethylpiperazine-1-carboxamide]: the half-inhibitory concentration (IC50) with MIA PaCa-2 cells is 1000 to 10000 nM; at ALDH1A1 enzyme, less than 500 nM.

As to `CC(C)NC(=O)N1CCN(C(=O)c2cnc3ccc(F)cc3c2N2CCC(C)(C#N)CC2)CC1` [Example 90, 4-(4-(4-cyano-4-methylpiperidin-1-yl)-6-fluoroquinoline-3-carbonyl)-N-isopropylpiperazine-1-carboxamide], the half-maximal inhibitory concentration (IC50) in the assay on MIA PaCa-2 cells is more than 10000 nM; at ALDH1A1 enzyme it was 1000 to 10000 nM.

Consider `O=C(c1cnc2ccc(F)cc2c1N1CCC2(CC1)OCCO2)N1CCN(C(=O)N2CCCC2)CC1` [Example 150, (6-fluoro-4-(1,4-dioxa-8-azaspiro[4.5]decan-8-yl)quinolin-3-yl)(4-(pyrrolidine-1-carbonyl)piperazin-1-yl)methanone], for which the 50% inhibitory concentration (IC50) in the assay with MIA PaCa-2 cells was more than 10000 nM; at ALDH1A1 enzyme, less than 500 nM.

For `CN(C)C(=O)N1CCN(C(=O)c2cnc3c(F)cc(F)cc3c2N2CCC(C)(C#N)CC2)CC1` [Example 183, 4-(4-(4-cyano-4-methylpiperidin-1-yl)-6,8-difluoroquinoline-3-carbonyl)-N,N-dimethylpiperazine-1-carboxamide], the figures for the IC50 in the assay on MIA PaCa-2 cells and at ALDH1A1 enzyme were 1000 to 10000 nM and less than 500 nM, respectively.

Take `COc1c(F)cc2c(N3CCC4(CC3)OCCO4)c(C(=O)N3CCN(S(C)(=O)=O)CC3)cnc2c1F` [Example 133, (6,8-difluoro-7-methoxy-4-(1,4-dioxa-8-azaspiro[4.5]decan-8-yl)quinolin-3-yl)(4-(methylsulfonyl)piperazin-1-yl)methanone]: the 50% inhibitory concentration (IC50) was 1000 to 10000 nM in the assay with MIA PaCa-2 cells and less than 500 nM on ALDH1A1 enzyme.

On to `N#CC1(c2ccc(-c3c(C(=O)N4CC5(C4)CS(=O)(=O)C5)cnc4ccc(F)cc34)cc2)CC1` [Cpd. 332, 1-(4-(3-(2,2-dioxido-2-thia-6-azaspiro[3.3]heptane-6-carbonyl)-6-fluoroquinolin-4-yl)phenyl)cyclopropane-1-carbonitrile], for which the IC50 with MIA PaCa-2 cells was 1000 to 10000 nM; at ALDH1A1 enzyme, less than 500 nM.

With `CC1(C#N)CCN(c2c(C(=O)N3CCN(S(C)(=O)=O)CC3)cnc3cc(F)c(F)cc23)CC1` [Example 136, 1-(6,7-difluoro-3-(4-(methylsulfonyl)piperazine-1-carbonyl)quinolin-4-yl)-4-methylpiperidine-4-carbonitrile], the IC50 in the assay on MIA PaCa-2 cells was 1000 to 10000 nM; at ALDH1A1 enzyme it was less than 500 nM.

As for `N#CC1(O)CCN(C(=O)c2cnc3ccc(F)cc3c2-c2ccc(C3(C#N)CC3)cc2)CC1` [Cpd. 340, 1-(4-(4-(1-cyanocyclopropyl)phenyl)-6-fluoroquinoline-3-carbonyl)-4-hydroxypiperidine-4-carbonitrile], the concentration for half-maximal inhibition (IC50) is 1000 to 10000 nM in the assay with MIA PaCa-2 cells and less than 500 nM on ALDH1A1 enzyme.

`CCOC(=O)N1CCN(C(=O)c2cnc3cc(OC)c(OC)cc3c2N2CCC(C)(C#N)CC2)CC1` [Example 116, Ethyl 4-(4-(4-cyano-4-methylpiperidin-1-yl)-6,7-dimethoxyquinoline-3-carbonyl)piperazine-1-carboxylate]: the IC50 was 1000 to 10000 nM in the assay on MIA PaCa-2 cells and less than 500 nM at ALDH1A1 enzyme.

As to `O=C(c1cnc2ccc(F)cc2c1N1CCC2(CC1)Cc1ccccc1C2=O)N1CCN(C(=O)C2CC2)CC1` [Example 204, 1′-(3-(4-(cyclopropanecarbonyl)piperazine-1-carbonyl)-6-fluoroquinolin-4-yl)spiro[indene-2,4′-piperidin]-1(3H)-one], the results for the 50% inhibitory concentration (IC50) in the assay on MIA PaCa-2 cells and on ALDH1A1 enzyme were more than 10000 nM and 1000 to 10000 nM, respectively.

With `CCN(CC)C(=O)N1CCN(C(=O)c2cnc3c(F)cc(F)cc3c2N2CCC(C)(C#N)CC2)CC1` [Example 164, 4-(4-(4-cyano-4-methylpiperidin-1-yl)-6,8-difluoroquinoline-3-carbonyl)-N,N-diethylpiperazine-1-carboxamide], the 50% inhibitory concentration (IC50) with MIA PaCa-2 cells fell in the range of 1000 to 10000 nM; at ALDH1A1 enzyme, 500 to 1000 nM.

On to `COc1c(F)cc2c(N3CCC(C)(C#N)CC3)c(C(=O)N3CCN(S(C)(=O)=O)CC3)cnc2c1F` [Example 137, 1-(6,8-difluoro-7-methoxy-3-(4-(methylsulfonyl)piperazine-1-carbonyl)quinolin-4-yl)-4-methylpiperidine-4-carbonitrile], for which the IC50 with MIA PaCa-2 cells was 500 to 1000 nM; at ALDH1A1 enzyme it was less than 500 nM.

As for `CC1(C#N)CCN(c2c(C(=O)N3CCC(S(C)(=O)=O)CC3)cnc3cc(F)c(F)cc23)CC1` [Example 190, 1-(6,7-difluoro-3-(4-(methylsulfonyl)piperidine-1-carbonyl)quinolin-4-yl)-4-methylpiperidine-4-carbonitrile], the values for the half-inhibitory concentration (IC50) in the assay with MIA PaCa-2 cells and on ALDH1A1 enzyme were 1000 to 10000 nM and less than 500 nM, respectively.

With `CC1(C#N)CCN(c2c(C(=O)N3CCC(C(=O)C4CC4)CC3)cnc3c(F)cc(F)cc23)CC1` [Example 195, 1-(3-(4-(cyclopropanecarbonyl)piperidine-1-carbonyl)-6,8-difluoroquinolin-4-yl)-4-methylpiperidine-4-carbonitrile], the IC50 with MIA PaCa-2 cells is 1000 to 10000 nM; on ALDH1A1 enzyme it was less than 500 nM.

For `CS(=O)(=O)C1CCN(C(=O)c2cnc3ccc(F)cc3c2-c2ccc(C3(C#N)CC3)cc2)CC1` [Example 266, 1-(4-(6-fluoro-3-(4-(methylsulfonyl)piperidine-1-carbonyl)quinolin-4-yl)phenyl)cyclopropanecarbonitrile], the IC50 in the assay with MIA PaCa-2 cells and on ALDH1A1 enzyme was less than 500 nM in each case.

Turning to `CN(C)C(=O)N1CCN(C(=O)c2cnc3c(F)cc(F)cc3c2N2CCC3(CC2)OCCO3)CC1` [Example 180, 4-(6,8-difluoro-4-(1,4-dioxa-8-azaspiro[4.5]decan-8-yl)quinoline-3-carbonyl)-N,N-dimethylpiperazine-1-carboxamide], the IC50 in the assay with MIA PaCa-2 cells was 1000 to 10000 nM; on ALDH1A1 enzyme it was less than 500 nM.
